Here are results for two compounds from article PMC12473123, “Structure–Function Insights into Quinuclidine-3-One BisQACs: Synthesis, Modulation of Bacterial Resistance, Structure–Activity Relationship, and Biological Profiling” (Pharmaceuticals, 2025).

The structures appear in SMILES notation.

Test [1] concerns Staphylococcus aureus ATCC 25923. The test can be described thus: Broth microdilution MIC. It counts as cell-based. To be noted: Staphylococcus aureus, ATCC25923, read-out: Minimum Inhibitory Concentrations (MIC). (In broth dilution the organism is exposed to a series of concentrations in liquid medium.)
Test [2] relates to Staphylococcus aureus ATCC 33591 (methicillin-resistant). The test can be described thus: Broth microdilution MIC. As to conditions: Staphylococcus aureus, ATCC33591, read-out: Minimum Inhibitory Concentrations (MIC). It is filed as cell-based.
Test [3] deals with Staphylococcus aureus Clinical/MRSA. Put plainly: Broth microdilution MIC. It counts as cell-based. To be noted: Staphylococcus aureus, MRSA, read-out: Minimum Inhibitory Concentrations (MIC).
In test [4] the test system is Bacillus cereus ATCC 14579. The test can be described thus: Broth microdilution MIC. To be noted: ATCC14579, read-out: Minimum Inhibitory Concentrations (MIC), Bacillus cereus ATCC 14579. It counts as cell-based.
Test [5] has as its system Listeria monocytogenes ATCC 7644. The test can be described thus: Broth microdilution MIC. It counts as cell-based. To be noted: Listeria monocytogenes, ATCC7644, read-out: Minimum Inhibitory Concentrations (MIC), Listeria monocytogenes ATCC 7644.
The subject of test [6] is Enterococcus faecalis ATCC 29212. The test can be described thus: Broth microdilution MIC. It counts as cell-based. To be noted: Enterococcus faecalis, ATCC29212, read-out: Minimum Inhibitory Concentrations (MIC), Enterococcus faecalis ATCC 29212.
Test [7] relates to Escherichia coli ATCC 25922. Put plainly: Broth microdilution MIC. To be noted: Escherichia coli, ATCC25922, read-out: Minimum Inhibitory Concentrations (MIC). It counts as cell-based.
Test [8] relates to Salmonella enterica (food isolate). The test can be described thus: Broth microdilution MIC. It is filed as cell-based. To be noted: read-out: Minimum Inhibitory Concentrations (MIC).
In test [9] the test system is Pseudomonas aeruginosa ATCC 27853. Put plainly: Broth microdilution MIC. It is filed as cell-based. As to conditions: Pseudomonas aeruginosa, ATCC27853, read-out: Minimum Inhibitory Concentrations (MIC).
For test [10], the system named is Staphylococcus aureus ATCC 25923. Put plainly: Biofilm inhibition assay (crystal violet). It is filed as cell-based. How it is done: (§1) The ability of the candidate compounds to inhibit biofilm formation was evaluated by determining the minimum biofilm inhibitory concentration (MBIC) against the biofilm-forming strains Staphylococcus aureus ATCC 25923 and Listeria monocytogenes ATCC 7644. Overnight bacterial cultures were diluted in fresh, pre-warmed Mueller–Hinton broth (MHB) and incubated at 37 °C with constant shaking at 220 rpm. Once the cultures reached the exponential growth phase (OD600 = 0.3–0.5), they were standardized to a final concentration of 4 × 10^6 CFU/mL.
(§2) Plates were incubated at 37 °C for 24 to 48 h, depending on the bacterial strain. After incubation, the planktonic cells were carefully aspirated to preserve the integrity of the biofilm layer. Wells were gently rinsed with sterile ultrapure Milli-Q water and air-dried at 60 °C for 1 h to fix the biofilms. Biofilm formation was quantified using a crystal violet (CV) staining method. Wells were stained with 100 µL of 0.1% CV solution and incubated at room temperature for 1 h. Excess dye was removed by rinsing with sterile ultrapure Milli-Q water, followed by air-drying. Bound CV was solubilized with 100 µL of 70% ethanol and incubated for 30 min. The solubilized dye was transferred to a fresh plate, and absorbance was measured at 595 nm using a microplate reader (Bio-Tek EL808, Winooski, VT, USA). Absorbance values were directly proportional to biofilm biomass. Untreated bacterial cultures served as positive controls for biofilm formation, while sterile MHB served as the negative control.

For test [11] the test system is unchanged. Put plainly: Time-kill kinetics assay. It is filed as cell-based. As to the method: To assess the temporal dynamics of bacterial viability upon exposure to the test compounds, a time-kill kinetics assay was performed using the Gram-positive reference strain Staphylococcus aureus ATCC 25923. An overnight culture of the strain was subcultured into fresh, pre-warmed Mueller–Hinton broth (MHB) and incubated under aerobic conditions at 37 °C with agitation (220 rpm) until reaching the early exponential growth phase. The bacterial suspension was then standardized to an initial concentration of approximately 5 × 10^5 CFU/mL. […] Wells containing untreated bacterial cultures served as growth controls. Immediately after mixing, a 10 µL sample from each well was withdrawn, diluted in 990 µL of MHB, and serially diluted tenfold up to 10^−6. From each dilution, 20 µL was plated on MHB agar using a sterile loop to determine the initial bacterial count (time zero). The treated plates were incubated at 37 °C, and additional samples were collected at predetermined time points (2, 4, 6, 8, 12, and 24 h) following the same dilution and plating protocol. After 24 h of incubation at 37 °C, colonies were counted, and viable bacterial counts were expressed as log10 CFU/mL for each time point. Bactericidal activity was evaluated by plotting the log10 CFU/mL over time, providing a dynamic profile of the compound’s killing kinetics.

Test [12] has as its system HEK293 cells. Put plainly: Cytotoxicity MTS assay. It counts as cell-based, human. To be noted: Homo sapiens, HEK293, 48 h, read-out: IC50 HEK293. How it is done: (§3) The cytotoxic potential of the selected drug candidates was evaluated using the CellTiter 96® AQueous One Solution Cell Proliferation Assay (Promega, Madison, WI, USA), following the manufacturer’s protocol. Human cell lines RPE1 and HEK293 were cultured at 37 °C in a humidified incubator with 5% CO2. Test compounds were dissolved in the appropriate growth medium and serially diluted across a range of concentrations in 96-well microtiter plates. Each well was seeded with 5000 cells and incubated for 48 h under standard culture conditions. Following this incubation period, 20 µL of MTS reagent was added to each well, and the plates were further incubated for 3 h to allow for color development. Absorbance was measured at 490 nm using a microplate reader to determine cell viability. Cytotoxicity was quantified as the half-maximal inhibitory concentration (IC50), defined as the concentration of compound that reduced cell viability by 50%. […] IC50 values were calculated using GraFit 6.0 software by plotting compound concentration against absorbance and fitting the data to a sigmoidal dose–response curve.
(In general: Formazan colour is commonly taken as a measure of viable cells.)

In test [13] the test system is RPE1 cells. Put plainly: Cytotoxicity MTS assay. It counts as cell-based, human. To be noted: Homo sapiens, RPE-1, 48 h, read-out: IC50 RPE1. How it is done: as §3
In test [14] the test system is Staphylococcus aureus ATCC 25923. The test can be described thus: Time-resolved growth kinetics. It is filed as cell-based. To be noted: subinhibitory concentrations, relative to 2(QC16)3 and 2(QC16)6. How it is done:
(§4) The antimicrobial activity of the candidate compounds against Staphylococcus aureus ATCC 25923 and Listeria monocytogenes ATCC 7644 was further evaluated using a time-resolved growth kinetics assay in 96-well microtiter plates. Overnight bacterial cultures were diluted in fresh, pre-warmed Mueller–Hinton broth (MHB) and incubated at 37 °C with orbital shaking at 220 rpm. Upon reaching the exponential growth phase (OD600 = 0.3–0.5), cultures were standardized to a final concentration of 5 × 10^4 CFU/mL. Aliquots (50 µL) of the standardized inoculum were dispensed into wells containing either no antimicrobial agent (negative control) or the test compounds at concentrations corresponding to ½ MIC and MIC. Bacterial growth was continuously monitored over a 24 h period by measuring absorbance at 595 nm every 10 min using a Bio-Tek EL808 microplate reader (Winooski, VT, USA). Growth kinetics were assessed by comparing the optical density profiles of treated samples against the untreated control. Each experiment was performed independently twice, with all conditions tested in triplicate. Data are presented as the mean values of these replicates.

The subject of test [15] is Listeria monocytogenes ATCC 7644. Put plainly: Biofilm inhibition assay (crystal violet). As to conditions: Listeria monocytogenes, ATCC7644, read-out: biofilm inhibition. It counts as cell-based. As to the method:
as §1
as §2, with “Aliquots (50 µL) of the standardized bacterial suspension were inoculated into 96-well microtiter plates containing the test compounds at final concentrations of 100, 50, 25, and 12.5 µg/mL. Plates” for “Plates”

Test [16] shares this test system. Put plainly: Time-resolved growth kinetics. As to conditions: MIC and ½ MIC. It counts as cell-based. How it is done:
as §4

The IC50 is the concentration that gives 50% inhibition. A word on the inhibition: it is the change of the read-out against control, counted positive when it falls.

`CCCCCCCCCCCCCCNC1C[N+]2(CCCCCC[N+]34CCC(CC3)C(NCCCCCCCCCCCCCC)C4)CCC1CC2` (racemic) [2(QC14)6, (±)-1,1′-(Hexane-1,6-diyl) bis(3-(tetradecylamino)quinuclidinium) dibromide]: the MIC in test [1] came out at 38 µM; in test [2], 19 µM; in test [3], 75 µM; in [4], 75 µM; in test [5], 19 µM; in test [6], 38 µM. For the same compound, the MIC in test [7] was 19 µM; in test [8], 75 µM; in [9], more than 75 µM. In addition, the biofilm inhibition in [10] (S. aureus ATCC 25923, 6.25 µg/mL) is 13%; in test [10] (S. aureus ATCC 25923, 12.5 µg/mL) it was 15%; in test [10] (S. aureus ATCC 25923, 25 µg/mL), 34%; in test [10] (S. aureus ATCC 25923, 50 µg/mL) it was “remained effective”; in test [10] (S. aureus ATCC 25923, 100 µg/mL), more than 90%. Moreover, in [11] (S. aureus ATCC 25923), the “time to rapid bactericidal activity” value was not above 3 h. In addition, the “time to complete killing” value in test [11] (S. aureus ATCC 25923, 2 × MIC) is reported as 2 h. In addition, the IC50 was determined as 42 µM in test [12] and 61 µM in test [13]. Also, the “growth curve slope in exponential phase” value in [14] was “shallower growth curve slope”.
`CCCCCCCCCCCCCCCCNC1C[N+]2(CCCC[N+]34CCC(CC3)C(NCCCCCCCCCCCCCCCC)C4)CCC1CC2` (racemic) [2(QC16)4, (±)-1,1′-(Butane-1,4-diyl) bis(3-(hexadecylamino)quinuclidinium) dibromide]: the MIC in test [1] is 75 µM; in test [2], 9 µM; in [3], 75 µM; in [4] it was more than 75 µM; in [5], 9 µM; in test [6] it was 38 µM. Moreover, the MIC is 19 µM in [7], 75 µM in test [8] and more than 75 µM in test [9]. Further, the inhibition at 6.25 µg/mL in [15] is more than 50%. Also, the inhibition at 12.5 µg/mL in test [15] is more than 70%. Besides, the inhibition at 25 µg/mL in test [15] was more than 90%. Moreover, in test [15], the inhibition at 50 µg/mL was more than 90%. The inhibition at 100 µg/mL in test [15] is 92%. Further, the IC50 stood at 25 µM in [12] and 34 µM in test [13]. In addition, the “effect on bacterial growth” value in [16] is on record as “pronounced inhibitory effect”.
